The assay deals with cloned hERG potassium channel encoded by the KCNH2 gene (Homo sapiens, UniProt Q12809). Nature of the assay: hERG FASTPatch assay (QPatch patch clamp, HEK293T cells). The settings on record: HEK293T cells, 1, 3, 10 and 30 uM, room temperature; Table 27. Type of assay: cell-based. How it is done:
The FASTPatch® Assay (Charles River) was used to examine the in vitro effects of the compounds provided herein on the cloned hERG potassium channel encoded by the KCNH2 gene and stably expressed in HEK293T cells. Vehicle, test and control article formulations were prepared by diluting DMSO stock solutions in HB-PS (HEPES-buffered physiological saline solution) and were delivered to cells via the QPatch robot pipetting system to a final concentration of 0.3% DMSO. Test compound final concentrations of 1, 3, 10 and 30 uM were applied to cells (n >3, where n=the number of cells/concentration) in ascending order in at least three minute intervals separated by solution exchange. The positive control, 50 nM cisparide, was applied in the same manner. Cell membrane currents were recorded at room temperature with up to 48 parallel patch clamp amplifiers in the QPatch HT® or QPatch HTX® system, and only cells with validated whole-cell recordings (seal resistance >200 MQ and leak current <25% channel current) were used. Onset and block of hERG current was measured using a stimulus voltage pattern consisting of a 500 ms prepulse to −40 mV, a 2-second activating pulse to +40 mV, followed by a 2-second test pulse to −40 mV. The pulse pattern was repeated continuously at 10-second intervals from a holding potential of −80 mV. % Block={1-1/[1+([Test]/IC50)^N]}*100% Where [Test] is the concentration of test article, IC50 is the concentration of the test article producing half-maximal inhibition, N is the Hill coefficient and % Block is the percentage of current inhibited at each concentration of the test article. Nonlinear least squares fits will be solved with the Solver add-in for Excel 2000 or later (Microsoft, Redmon, WA). TurboSol analysis for test compound solubility was performed for each concentration tested using a Nephelostar reader measuring light scatter from a 635 nm laser source. Based on validation experiments, light scatter above four times the background level was considered an indication of the presence of particles in suspension.

pIC50: −log10 of the molar value. Some results are limits rather than exact numbers.

Chain of cloned hERG potassium channel encoded by the KCNH2 gene (Q12809 whole entry): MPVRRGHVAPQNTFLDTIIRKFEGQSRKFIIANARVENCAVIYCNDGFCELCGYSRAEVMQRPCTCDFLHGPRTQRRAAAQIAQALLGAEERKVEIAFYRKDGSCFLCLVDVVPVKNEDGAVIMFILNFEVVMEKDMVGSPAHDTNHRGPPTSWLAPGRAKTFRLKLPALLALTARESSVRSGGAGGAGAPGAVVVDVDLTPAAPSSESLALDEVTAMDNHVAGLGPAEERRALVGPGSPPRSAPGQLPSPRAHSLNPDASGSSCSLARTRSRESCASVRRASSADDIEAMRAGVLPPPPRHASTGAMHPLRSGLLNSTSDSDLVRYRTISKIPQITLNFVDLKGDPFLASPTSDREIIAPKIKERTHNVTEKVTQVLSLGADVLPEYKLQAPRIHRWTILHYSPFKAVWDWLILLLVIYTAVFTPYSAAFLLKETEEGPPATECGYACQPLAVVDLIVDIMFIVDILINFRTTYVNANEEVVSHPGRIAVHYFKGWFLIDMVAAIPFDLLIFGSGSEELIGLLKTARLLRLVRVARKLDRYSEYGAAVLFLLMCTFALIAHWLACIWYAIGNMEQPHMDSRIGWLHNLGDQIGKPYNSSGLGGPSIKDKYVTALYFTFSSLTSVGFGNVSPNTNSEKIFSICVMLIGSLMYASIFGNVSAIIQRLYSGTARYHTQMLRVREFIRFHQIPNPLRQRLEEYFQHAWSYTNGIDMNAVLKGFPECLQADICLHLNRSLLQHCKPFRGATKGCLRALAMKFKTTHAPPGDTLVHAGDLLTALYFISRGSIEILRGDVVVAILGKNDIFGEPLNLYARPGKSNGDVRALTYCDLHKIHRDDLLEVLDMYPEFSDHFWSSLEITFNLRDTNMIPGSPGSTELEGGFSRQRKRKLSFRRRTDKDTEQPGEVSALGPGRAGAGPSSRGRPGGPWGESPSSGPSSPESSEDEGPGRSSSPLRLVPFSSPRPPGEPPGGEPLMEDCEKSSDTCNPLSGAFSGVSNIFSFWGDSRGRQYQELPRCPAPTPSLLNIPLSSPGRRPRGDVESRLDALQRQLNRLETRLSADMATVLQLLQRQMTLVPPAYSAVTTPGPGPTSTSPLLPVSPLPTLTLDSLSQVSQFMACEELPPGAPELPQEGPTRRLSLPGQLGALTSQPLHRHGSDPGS

`Cc1cc(-c2[nH]c3cc(-c4ccc(N5CCNCC5)nc4)ccc3c2C)cc(C)n1` [Example 1, 2-(2,6-dimethylpyridin-4-yl)-3-methyl-6-(6-(piperazin-1-yl)pyridin-3-yl)-1H-indole] showed a pIC50 not above 4.52.

The molecule `Cc1cc(-c2[nH]c3cc(C4CCCNC4)ccc3c2C)cc(C)n1` (centres unmarked) [Example 53] had a negative logarithm of the IC50 (pIC50) of 4.71.

Values taken from patent publication US20250002471A1 (Gilead Sciences, Inc., priority 2020, published 2025).
